Test results taken from patent US8680114B2, “AKT protein kinase inhibitors” (Array Biopharma, Inc., priority 2003, dated 2014).

Biological target: full-length human recombinant active AKT-1 (Homo sapiens, UniProt P31749)
Assay: AKT-1 kinase assay (IMAP fluorescence polarization, phosphorylation of fluorescently-labeled peptide)
Type: biochemical
Settings: AKT-1 IMAP assay, qualitative statement, values not given
Text: The activity of the compounds described in the present invention may be determined by the following procedure: This procedure describes a kinase assay that measures the phosphorylation of a fluorescently-labeled peptide by full-length human recombinant active AKT-1 by fluorescent polarization using a commercially available IMAP kit.
The assay materials come from an IMAP AKT Assay Bulk Kit, product #R8059, from Molecular Devices, Sunnyvale, Calif. The kit materials include an IMAP Reaction Buffer (5×): The diluted 1×IMAP Reaction Buffer contains 10 mM Tris-HCl, pH 7.2, 10 mM MgCl2, 0.1% BSA, 0.05% NaN3. DTT is routinely added to a final concentration of 1 mM immediately prior to use.
Also included are IMAP Binding Buffer (5×), and IMAP Binding Reagent. The Binding Solution is prepared as a 1:400 dilution of IMAP Binding Reagent into 1×IMAP Binding Buffer.
Fluorescein-labeled AKT Substrate (Crosstide), having the sequence (F1)-GRPRTSSFAEG. A stock solution of 20 μM is made up in 1×IMAP Reaction Buffer.
The plates used include a Costar 3657 ([…] made of polypropylene and having a white, v-bottom) that is used for compound dilution and for preparing the compound-ATP mixture. The assay plate was the Packard ProxyPlate™-384 F.
The AKT-1 used was made from full-length, human recombinant AKT-1 that is activated with PDK1 and MAP kinase 2.
The assay procedure starts the preparation of stock solutions of compounds at 10 mM in DMSO. The stock solutions and the control compound are serially diluted 1:2 nine times into DMSO (10 μL of compound+10 μL of DMSO) to give 50× dilution series over the desired dosing range. […]
The assay is initiated by the addition of 2.5-μL aliquots of a solution containing 200 nM of fluorescently-labeled peptide substrate and 4 nM AKT-1. […] The reaction is then quenched by the addition of 15 μL of Binding Solution, centrifuged again and incubated for an additional 30 minutes at ambient temperature prior to reading on a Victor 1420 Multilabel HTS Counter configured to measure fluorescence polarization.

Chain of full-length human recombinant active AKT-1 (P31749 whole entry): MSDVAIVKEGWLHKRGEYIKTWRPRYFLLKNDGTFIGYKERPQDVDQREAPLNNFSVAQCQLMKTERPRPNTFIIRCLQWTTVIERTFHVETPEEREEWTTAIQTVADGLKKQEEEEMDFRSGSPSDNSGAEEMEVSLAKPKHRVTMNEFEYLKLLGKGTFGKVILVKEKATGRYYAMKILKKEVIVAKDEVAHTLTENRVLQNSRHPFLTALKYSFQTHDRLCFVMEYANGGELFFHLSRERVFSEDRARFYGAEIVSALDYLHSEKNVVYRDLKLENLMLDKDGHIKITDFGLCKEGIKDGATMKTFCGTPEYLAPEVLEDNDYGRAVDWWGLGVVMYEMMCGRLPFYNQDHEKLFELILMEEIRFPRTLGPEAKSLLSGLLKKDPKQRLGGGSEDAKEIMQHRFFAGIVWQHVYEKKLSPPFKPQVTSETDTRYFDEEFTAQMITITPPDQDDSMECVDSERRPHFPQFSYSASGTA

| SMILES | activity for inhibiting AKT protein kinases |
| --- | --- |
| N[C@H](Cc1ccc2ccccc2c1)C(=O)N1CCN(c2ncnc3ccccc23)CC1 [Example 11, (2R)-2-Amino-3-(2-naphthyl)-1-(4-quinazolin-4-yl-piperazin-1-yl)-propan-1-one] | showed activity |
| N[C@H](Cc1ccc(Cl)cc1)C(=O)N1CCN(c2ncnc3ccccc23)CC1 [Example 9, (2R)-2-Amino-3-(4-chlorophenyl)-1-(4-quinazolin-4-yl-piperazin-1-yl)-propan-1-one] | showed activity |
| N[C@H](Cc1ccc(Cl)cc1)C(=O)N1CCN(c2ccnc3ccsc23)CC1 [Example 24, (2R)-2-amino-3-(4-chlorophenyl)-1-(4-thieno[3,2,b]pyridin-7-yl-piperazin-1-yl)-propan-1-one dihydochloride] | showed activity |
